ChEMBL document CHEMBL1130203, “Novel fluoroquinolone antibacterial agents containing oxime-substituted (aminomethyl)pyrrolidines: synthesis and antibacterial activity of 7-(4-(aminomethyl)-3-(methoxyimino)pyrrolidin-1-yl)-1-cyclopropyl-6- fluoro-4-oxo-1,4-dihydro[1,8]naphthyridine-3-carboxylic acid (LB20304)” (J Med Chem, 1997)
Converted amounts (≈) assume the structure as drawn.

Tests used:
Enterococcus faecalis = test: Minimum inhibitory concentration (MIC) against Streptococcus faecalis 29212; type: functional; conditions: Enterococcus faecalis; read-out: MIC
Pseudomonas aeruginosa [1] = test: Minimum inhibitory concentration (MIC) against Pseudomonas aeruginosa 1912E; type: functional; conditions: Pseudomonas aeruginosa; read-out: MIC
Escherichia coli [2] = test: Minimum inhibitory concentration (MIC) against Escherichia coli TEM9 2639E; type: functional; conditions: Escherichia coli; read-out: MIC
[3] = tested on: Acinetobacter calcoaceticus; test: Minimum inhibitory concentration (MIC) against Acinetobacter calcoaceticus 15473; type: functional; conditions: Acinetobacter calcoaceticus; read-out: MIC
Staphylococcus aureus [4] = test: Minimum inhibitory concentration (MIC) against Staphylococcus aureus 6538p.; type: functional
Enterobacter cloacae = test: Minimum inhibitory concentration (MIC) against Enterobacter cloacae P99; type: functional
Klebsiella aerogenes = test: Minimum inhibitory concentration (MIC) against Klebsiella aerogenes 1082E; type: functional; conditions: Klebsiella aerogenes; read-out: MIC
Staphylococcus aureus [5] = test: Minimum inhibitory concentration (MIC) against Staphylococcus aureus giorgio; type: functional
Bacillus subtilis = test: Minimum inhibitory concentration (MIC) against Bacillus subtilis ATCC 6633; type: functional
Escherichia coli [6] = test: Minimum inhibitory concentration (MIC) against Escherichia coli 3190Y; type: functional
Escherichia coli [7] = test: Minimum inhibitory concentration (MIC) against Escherichia coli 10536; type: functional
[8] = tested on: Staphylococcus epidermidis; test: Minimum inhibitory concentration (MIC) against Staphylococcus epidermidis 887E; type: functional
[9] = tested on: Staphylococcus epidermidis; test: Minimum inhibitory concentration (MIC) against Staphylococcus epidermidis 178; type: functional; conditions: Staphylococcus epidermidis; read-out: MIC
Staphylococcus aureus [10] = test: Minimum inhibitory concentration (MIC) against Staphylococcus aureus 241; type: functional; conditions: Staphylococcus aureus; read-out: MIC
Streptococcus pneumoniae = test: Minimum inhibitory concentration (MIC) against Streptococcus pneumoniae 77A
Escherichia coli [11] = test: Minimum inhibitory concentration (MIC) against Escherichia coli 851E
[12] = Area under curve was determined in Rats after peroral administration; type: ADME, organism-based; conditions: rat, in vivo, po
Mus musculus [13] = species: Mus musculus; test: 50% Effective Dose against systemic infection in mouse by Staphylococcus aureus giorgo; type: functional
Pseudomonas aeruginosa [14] = test: Minimum inhibitory concentration (MIC) against Pseudomonas aeruginosa 1912E
Mus musculus [15] = species: Mus musculus; test: 50% Effective Dose against systemic infection in mouse by Escherichia coli 851E; type: functional
Mus musculus [16] = species: Mus musculus; test: 50% Effective Dose against systemic infection in mouse by Pseudomonas aeruginosa 1912E; type: functional
[17] = Tmax was determined in Rats after Peroral administration; type: ADME, organism-based; conditions: rat, in vivo, po
Staphylococcus aureus [18] = test: Minimum inhibitory concentration (MIC) against Staphylococcus aureus giorgo
[19] = maximum Plasma concentration in Rats was determined after Peroral administration; type: ADME, organism-based; design: route oral; conditions: rat, po
[20] = Half-life in Rats was determined after Peroral administration; type: ADME, organism-based; conditions: rat, in vivo, po
[21] = Oral bioavailability in rat; type: ADME, organism-based; conditions: in vivo
[22] = tested on: Acinetobacter calcoaceticus; test: Minimum inhibitory concentration (MIC) against Acinetobacter calcoaceticus 5473; type: functional
[23] = tested on: Acinetobacter calcoaceticus; test: Minimum inhibitory concentration (MIC) against Acinetobacter calcoaceticus; type: functional

| Structure (SMILES) | MIC (Enterococcus faecalis) | MIC (Pseudomonas aeruginosa [1]) | MIC (Escherichia coli [2]) | MIC [3] | MIC (Staphylococcus aureus [4]) | MIC (Enterobacter cloacae) | MIC (Klebsiella aerogenes) | MIC (Staphylococcus aureus [5]) | MIC (Bacillus subtilis) | MIC (Escherichia coli [6]) | MIC (Escherichia coli [7]) | MIC [8] | MIC [9] | MIC (Staphylococcus aureus [10]) | other results |
| --- | --- | --- | --- | --- | --- | --- | --- | --- | --- | --- | --- | --- | --- | --- | --- |
| CC(C)O/N=C1\CN(c2nc3c(cc2F)c(=O)c(C(=O)O)cn3C2CC2)CC1CN (stereo not drawn) | 0.063 µg/mL (≈ 0.151 µM) | 1 µg/mL (≈ 2.4 µM) | 0.063 µg/mL (≈ 0.151 µM) | 0.031 µg/mL (≈ 0.0743 µM) | < 0.008 µg/mL | < 0.008 µg/mL | 0.13 µg/mL (≈ 0.311 µM) | < 0.008 µg/mL | < 0.008 µg/mL | < 0.008 µg/mL | < 0.008 µg/mL | < 0.008 µg/mL | 1 µg/mL (≈ 2.4 µM) | 2 µg/mL (≈ 4.79 µM) |  |
| CC(C)(C)O/N=C1\CN(c2nc3c(cc2F)c(=O)c(C(=O)O)cn3C2CC2)CC1CN (stereo not drawn) | 0.063 µg/mL (≈ 0.146 µM) | 2 µg/mL (≈ 4.64 µM) | 0.063 µg/mL (≈ 0.146 µM) | 0.031 µg/mL (≈ 0.0718 µM) | 0.008 µg/mL (≈ 0.0185 µM) | ≤ 0.008 µg/mL | 0.25 µg/mL (≈ 0.579 µM) | < 0.008 µg/mL | < 0.008 µg/mL | 0.016 µg/mL (≈ 0.0371 µM) | ≤ 0.008 µg/mL | < 0.008 µg/mL | 1 µg/mL (≈ 2.32 µM) | 1 µg/mL (≈ 2.32 µM) |  |
| NCC1CCN(c2nc3c(cc2F)c(=O)c(C(=O)O)cn3C2CC2)C1 (stereo not drawn) | 0.13 µg/mL (≈ 0.375 µM) | 0.5 µg/mL (≈ 1.44 µM) | 0.063 µg/mL (≈ 0.182 µM) | 0.13 µg/mL (≈ 0.375 µM) | 0.031 µg/mL (≈ 0.0895 µM) | 0.031 µg/mL (≈ 0.0895 µM) | 0.063 µg/mL (≈ 0.182 µM) | 0.031 µg/mL (≈ 0.0895 µM) | 0.016 µg/mL (≈ 0.0462 µM) | < 0.008 µg/mL | 0.031 µg/mL (≈ 0.0895 µM) | 0.016 µg/mL (≈ 0.0462 µM) | 32 µg/mL (≈ 92.4 µM) | 16 µg/mL (≈ 46.2 µM) | MIC (Streptococcus pneumoniae): 0.063 µg/mL (≈ 0.182 µM); MIC (Escherichia coli [11]): 0.031 µg/mL (≈ 0.0895 µM); AUC [12]: 380 ng·h/mL; ED50 (Mus musculus [13]): 8.03 mg/kg; MIC (Pseudomonas aeruginosa [14]): 0.5 µg/mL (≈ 1.44 µM); ED50 (Mus musculus [15]): > 13.5 mg/kg; ED50 (Mus musculus [16]): 29.8 mg/kg; Tmax [17]: 0.17 h; MIC (Staphylococcus aureus [18]): 0.031 µg/mL (≈ 0.0895 µM); Cmax [19]: 300 ng/mL; half-life [20]: 2.2 h; bioavailability [21]: 10.1% |
| CO/N=C1\CN(c2nc3c(cc2F)c(=O)c(C(=O)O)cn3-c2ccc(F)cc2F)CC1CN (stereo not drawn) | 0.13 µg/mL (≈ 0.282 µM) | 0.5 µg/mL (≈ 1.08 µM) | 0.25 µg/mL (≈ 0.542 µM) | 0.13 µg/mL (≈ 0.282 µM) | 0.031 µg/mL (≈ 0.0672 µM) | 0.063 µg/mL (≈ 0.137 µM) | 0.25 µg/mL (≈ 0.542 µM) | 0.031 µg/mL (≈ 0.0672 µM) | 0.016 µg/mL (≈ 0.0347 µM) | 0.008 µg/mL (≈ 0.0173 µM) | 0.063 µg/mL (≈ 0.137 µM) | 0.016 µg/mL (≈ 0.0347 µM) | 8 µg/mL (≈ 17.3 µM) | 8 µg/mL (≈ 17.3 µM) |  |
| CCO/N=C1\CN(c2nc3c(cc2F)c(=O)c(C(=O)O)cn3C2CC2)CC1CN (stereo not drawn) | 0.063 µg/mL (≈ 0.156 µM) | 0.5 µg/mL (≈ 1.24 µM) | 0.031 µg/mL (≈ 0.0768 µM) | 0.016 µg/mL (≈ 0.0397 µM) | < 0.008 µg/mL | < 0.008 µg/mL | 0.031 µg/mL (≈ 0.0768 µM) | < 0.008 µg/mL | < 0.008 µg/mL | < 0.008 µg/mL | < 0.008 µg/mL | < 0.008 µg/mL | 2 µg/mL (≈ 4.96 µM) | 2 µg/mL (≈ 4.96 µM) |  |
| CO/N=C1\CN(c2cc3c(cc2F)c(=O)c(C(=O)O)cn3C2CC2)CC1CN (stereo not drawn) | 0.031 µg/mL (≈ 0.0798 µM) | 0.25 µg/mL (≈ 0.644 µM) | 0.031 µg/mL (≈ 0.0798 µM) |  | 0.008 µg/mL (≈ 0.0206 µM) | 0.008 µg/mL (≈ 0.0206 µM) | 0.031 µg/mL (≈ 0.0798 µM) | 0.016 µg/mL (≈ 0.0412 µM) | < 0.008 µg/mL | < 0.008 µg/mL | < 0.008 µg/mL | 0.016 µg/mL (≈ 0.0412 µM) | 4 µg/mL (≈ 10.3 µM) | 4 µg/mL (≈ 10.3 µM) | MIC [22]: 0.13 µg/mL (≈ 0.335 µM) |
| CCCO/N=C1\CN(c2nc3c(cc2F)c(=O)c(C(=O)O)cn3C2CC2)CC1CN (stereo not drawn) | 0.063 µg/mL (≈ 0.151 µM) | 1 µg/mL (≈ 2.4 µM) | 0.063 µg/mL (≈ 0.151 µM) | 0.031 µg/mL (≈ 0.0743 µM) | 0.008 µg/mL (≈ 0.0192 µM) | < 0.008 µg/mL | 0.13 µg/mL (≈ 0.311 µM) | < 0.008 µg/mL | < 0.008 µg/mL | < 0.008 µg/mL | < 0.008 µg/mL | < 0.008 µg/mL | 1 µg/mL (≈ 2.4 µM) | 2 µg/mL (≈ 4.79 µM) |  |
| CO/N=C1\CN(c2c(F)cc3c(=O)c(C(=O)O)cn(C4CC4)c3c2F)CC1CN (stereo not drawn) | 0.031 µg/mL (≈ 0.0763 µM) | 0.25 µg/mL (≈ 0.615 µM) | 0.031 µg/mL (≈ 0.0763 µM) |  | < 0.008 µg/mL | 0.016 µg/mL (≈ 0.0394 µM) | 0.031 µg/mL (≈ 0.0763 µM) | < 0.008 µg/mL | < 0.008 µg/mL | < 0.008 µg/mL | < 0.008 µg/mL | < 0.008 µg/mL | 0.5 µg/mL (≈ 1.23 µM) | 0.5 µg/mL (≈ 1.23 µM) | MIC [23]: 0.031 µg/mL (≈ 0.0763 µM) |
| CNCC1CN(c2nc3c(cc2F)c(=O)c(C(=O)O)cn3C2CC2)C/C1=N\OC (stereo not drawn) | 0.5 µg/mL (≈ 1.24 µM) | 2 µg/mL (≈ 4.96 µM) | 0.5 µg/mL (≈ 1.24 µM) | 1 µg/mL (≈ 2.48 µM) | 0.063 µg/mL (≈ 0.156 µM) | 0.13 µg/mL (≈ 0.322 µM) | 0.5 µg/mL (≈ 1.24 µM) | 0.13 µg/mL (≈ 0.322 µM) | 0.25 µg/mL (≈ 0.62 µM) | 0.063 µg/mL (≈ 0.156 µM) | 0.063 µg/mL (≈ 0.156 µM) | 0.13 µg/mL (≈ 0.322 µM) | 128 µg/mL (≈ 317 µM) | 128 µg/mL (≈ 317 µM) |  |
